# Test results from the NIST ThermoML archive (doi:10.1016/j.tca.2016.09.014).
# ± gives the expanded uncertainty stated by the source.
# Experiments:
# [1] = Crystal; DTA
# [2] = Molar enthalpy of transition or fusion; conditions: Crystal; DSC
Normal melting temperature [1] [°C],Molar enthalpy of transition or fusion [2] [kcal/mol],Compound
211.78 ± 5,9.22 ± 0.263,"O=C(O)c1cc(-c2ccc(F)cc2F)ccc1O [2',4'-difluoro-4-hydroxy-1,1'-biphenyl-3-carboxylic acid]"
41.27 ± 5,15.8 ± 0.43,CCCCCCCCCCCCCCCCOC(=O)CCCCCCCCCCCCCCC [cetyl palmitate]
,12.1 ± 0.335,CCCCCCCCCCCCCCCCCC(=O)O [octadecanoic acid]
